Structures are written as SMILES.

The source of these data is ChEMBL document CHEMBL1667835, “Optimisation of 6-substituted isoquinolin-1-amine based ROCK-I inhibitors” (Bioorg Med Chem Lett, 2011).

A short description of data set [1]: Oral bioavailability in C57 mouse. The following applies: in vivo. The class given is ADME, organism-based.
Data set [2] in a line: Volume of distribution at steady state in C57 mouse. Particulars: in vivo, read-out: Vdss. Format: ADME, organism-based.
A short description of data set [3]: Half life in C57 mouse. Format: ADME, organism-based. Particulars: in vivo.
Data set [4] in a line: Plasma clearance in C57 mouse. The class given is ADME, organism-based.
Data set [5] in a line: Intrinsic clearance in mouse liver microsomes assessed per mg of protein. The class given is ADME, Microsome.
Data set [6] can be described thus: Apparent permeability from apical to basolateral side of human Caco2 cells. The class given is ADME, cell-based. Particulars: Caco-2, read-out: permeability.
The nature of data set [7]: Apparent permeability from basolateral to apical side of human Caco2 cells. Format: ADME, cell-based. Particulars: Caco-2, read-out: permeability.
The test system of data set [8] is Liver microsomes. Nature of the data set: Intrinsic clearance in human liver microsomes assessed per mg of protein. The class given is ADME, Microsome.
The test system of data set [9] is Hepatocyte. Nature of the data set: Intrinsic clearance in rat hepatocytes assessed per 1 x 10^6 cells. Format: ADME, cell-based, Liver.
The subject of data set [10] is Hepatocyte. Nature of the data set: Intrinsic clearance in human hepatocytes assessed per 1 x 10^6 cells. The class given is ADME, cell-based, Liver.
In data set [11] the test system is Liver microsomes. Nature of the data set: Intrinsic clearance in rat liver microsomes assessed per mg of protein. Format: ADME, Microsome.

For the compound `Nc1nccc2c(S(=O)(=O)N3CCCNCC3)cccc12`, the bioavailability in data set [1] was determined as 57%. In addition, in data set [2], the Vd came out at 2.4 L/kg. In addition, in data set [3], the half-life is 45 min. In [4], this compound had a clearance of 34 mL/min/kg.

In the case of `O=c1[nH]ccc2cc(O[C@H]3CCCNC3)ccc12`, the clearance is 17 µL/min/mg in data set [5]; less than 12 µL/min/mg in data set [8]; less than 6 µL/min/1e6 cells in data set [9]; 2 µL/min/1e6 cells in data set [10]; 24 µL/min/mg in [11]. The Papp A→B in data set [6] was 14.3 ×10⁻⁶ cm/s. Further, the Papp B→A in data set [7] stood at 11.2 ×10⁻⁶ cm/s.

Take `c1ccc(CN2CCC[C@H](Oc3ccc4cnccc4c3)C2)cc1`: in data set [6], the Papp A→B was 11.6 ×10⁻⁶ cm/s. The Papp B→A in data set [7] amounted to 17.6 ×10⁻⁶ cm/s. Besides, the clearance in [9] was 21 µL/min/1e6 cells.

For the compound `Nc1nccc2cc(O[C@H]3CCCNC3)ccc12`, the bioavailability in data set [1] is more than 75%.
